{"source": "patent US4093713A", "about": "“Dipeptide derivatives with central nervous system activity and preparation thereof” (Ayerst McKenna & Harrison Ltd., priority 1977, dated 1978)", "origin": "cited, not measured here", "key": {"[1]": {"test_system": "behavioral effects of L-DOPA", "settings": "literature: Plotnikoff 1971, Friedman 1973"}, "effects of oxotremorin": {"test_system": "effects of oxotremorin", "settings": "literature: Plotnikoff 1972"}, "[2]": {"test_system": "sedative effects of deserpidine", "settings": "mice; literature: Plotnikoff"}, "[3]": {"test_system": "sedative effects of deserpidine", "settings": "monkeys; literature: Plotnikoff"}, "[4]": {"settings": "in vivo"}}, "note": "Like-named read-outs stand apart in the source and are kept apart here."}
{"substance": "H-L-prolyl-L-leucyl-glycinamide [H-Pro-Leu-Gly-NH2]", "values": [{"measurement": "potentiation of the behavioral effects of L-DOPA", "setting": "[1]", "value": "potentiates the behavioral effects of (3,4-dihydroxyphenyl)-L-alanine (L-DOPA)"}, {"measurement": "antagonism of the effects of oxotremorin", "setting": "effects of oxotremorin", "value": "antagonizes the effects of oxotremorin"}, {"measurement": "reversal of the sedative effects of deserpidine", "setting": "[2]", "value": "reverses the sedative effects of deserpidine"}, {"measurement": "reversal of the sedative effects of deserpidine", "setting": "[3]", "value": "reverses the sedative effects of deserpidine"}, {"measurement": "duration of action", "setting": "[4]", "value": "short duration of action"}, {"measurement": "first step in the inactivation", "setting": "[4]", "value": "proteolytic cleavage of the Pro-Leu bond with formation of proline and leucyl-glycinamide"}]}
